Broadly, the IC50 is the concentration at which inhibition is half-maximal. Low readings indicate inhibition by little substance, high ones a need for much substance.

In brackets after ≈: the same amount, converted by molar mass. Where two headings read alike, the source gives them in different places.

This is an account of results in PMC2763345 (PLoS Pathogens, 2009).

Series [1] has as its system M. tuberculosis H37Rv-GFP. The series can be described thus: microbe, parasite or virus in culture. The series is classed as cell-based, Mycobacterium tuberculosis. The conditions noted are these: for MIC: Mycobacterium tuberculosis, H37RV.
Series [2] has as its system M. tuberculosis H37Rv-GFP in Raw264.7 macrophages. The series can be described thus: microbe, parasite or virus in culture. It is filed as cell-based, Mycobacterium tuberculosis. The conditions noted are these: for MIC: Mycobacterium tuberculosis, H37RV.
A further series has as its system BCG Wild Type. The series can be described thus: microbe, parasite or virus in culture. The series is classed as cell-based, M. bovis BCG.
The test system of series [3] is M. smegmatis mc2 155 Wild Type. The series can be described thus: microbe, parasite or virus in culture. The series is classed as cell-based.
Series [4] deals with M. tuberculosis H37Rv. The series is classed as cell-based.
A further series relates to C. jeikeium. The series is classed as cell-based, Corynebacterium jeikeium.
The subject of series [5] is M. tuberculosis H37Ra. It is filed as cell-based.
Series [6] concerns Candida albicans, C. glabrata, C. parapsilosis. The series is classed as cell-based, Fungi.
The next series is described as follows: in vitro. The conditions noted are these: C57BL/6, mouse.
The test system of the next series is M. smegmatis mc2 155. It is filed as cell-based.
Series [7] has as its system Acinetobacter baumannii, Escherichia coli, Enterobacter cloacae, E. aerogenes, Klebsiella oxytoca, Pseudomonas aeruginosa, Salmonella enteridis, Vibrio mimicus. The series is classed as cell-based, Gram-negative bacteria.
The subject of a further series is C. striatum. The series is classed as cell-based, Corynebacterium striatum.
For series [8], the system named is M. tuberculosis H37Ra. The series is classed as cell-based. The source holds these as a separate data set.
The subject of another series is BCG Pasteur-Tokyo. The series is classed as cell-based, M. bovis BCG.
For series [9], the system named is Staphylococcus aureus, S. epidermis, S. capitis, S. xylosus, Micrococcus luteus, Listeria innocua, Lactobacillus gallinarum, group G Streptococcus …. The series is classed as cell-based, Gram-positive bacteria.
The subject of series [10] is M. tuberculosis H37Rv. It is filed as cell-based. The source holds these as a separate data set.
Setting [11] is: read-out: In vitro broth growth MIC (µM).
Where [12] appears, read: read-out: In vitro broth growth MIC (µg/mL).
[13] abbreviates: 120 h, read-out: Intracellular macrophage growth MIC (µM).
[14] abbreviates: 120 h, read-out: Intracellular macrophage growth MIC (µg/mL).

On to `O=C(NCCOCc1cccc(Cl)c1)c1cc(NO)cc([N+](=O)[O-])c1` [Compound 3], for which the MIC in [1] (read-out: MIC Extracellular) and in series [2] (read-out: MIC Intracellular) was over 20 µM in each case.

Turning to `COC(=O)c1ccc(O[C@H]2CCN(C(=O)c3cc([N+](=O)[O-])cc([N+](=O)[O-])c3)C2)cc1` [Compound 11-(S)], the MIC in series [1] (read-out: MIC Extracellular) was 0.08 µM; in [2] (read-out: MIC Intracellular), over 20 µM.

For the molecule `NCC[C@H](O)C(=O)N[C@@H]1C[C@H](N)[C@@H](O[C@H]2O[C@H](CN)[C@@H](O)[C@H](O)[C@H]2O)[C@H](O)[C@H]1O[C@H]1O[C@H](CO)[C@@H](O)[C@H](N)[C@H]1O` [Amikacin], the MIC in series [1] (setting [11]) is 0.07 µM; in [1] (setting [12]), 0.04 µg/mL; in series [2] (setting [13]), over 150 µM; in series [2] (setting [14]), over 20 µg/mL. Besides, in the series on Raw264.7 macrophages (mouse), the “Intracellular macrophage growth Cell toxicity” value is on record as over 150 µM.

Turning to `[H]/N=C(/N)N[C@H]1[C@H](O)[C@@H](O)[C@H](O[C@@H]2O[C@@H](C)[C@](O)(C=O)[C@H]2O[C@@H]2O[C@@H](CO)[C@H](O)[C@@H](O)[C@@H]2NC)[C@@H](N/C(N)=N\[H])[C@@H]1O` [Streptomycin], the MIC is 1.5 µM in series [1] (setting [11]), 0.9 µg/mL in [1] (setting [12]), over 35 µM in [2] (setting [13]) and over 20 µg/mL in series [2] (setting [14]). In addition, the “Intracellular macrophage growth Cell toxicity” value in the series with Raw264.7 macrophages (mouse) was over 35 µM.

Turning to `NC(=O)c1c(NC(=O)C2CC2)sc2c1CCCC2` [AX20017], in series [1], the “In vitro broth growth MIC (µM)” value is given as over 20 µM and the “In vitro broth growth MIC (µg/mL)” value is over 5 µg/mL. For the same molecule, the “Intracellular macrophage growth Cell toxicity” value in the series with Raw264.7 macrophages is reported as over 20 µM. Besides, in [2], the “Intracellular macrophage growth MIC (µM)” value is over 20 µM and the “Intracellular macrophage growth MIC (µg/mL)” value is given as over 5 µg/mL.

On to `Nc1cc(C(=O)NCCOCc2cccc(Cl)c2)cc([N+](=O)[O-])c1` [Compound 2], for which the MIC in [1] (read-out: MIC Extracellular) and in [2] (read-out: MIC Intracellular) was over 20 µM in each case.

Take `O=C(NCCOCc1cccc(Cl)c1)c1cccc([N+](=O)[O-])c1` [Compound 4]: the MIC in series [1] (read-out: MIC Extracellular) and in series [2] (read-out: MIC Intracellular) was over 20 µM throughout.

Turning to `CC[C@@H](CO)NCCN[C@@H](CC)CO` [Ethambutol], the MIC in series [1] (setting [11]) came to 4.9 µM; in series [1] (setting [12]), 1 µg/mL; in [2] (setting [13]) it was 4.9 µM; in series [2] (setting [14]), 1 µg/mL. In addition, the “Intracellular macrophage growth Cell toxicity” value in the series with Raw264.7 macrophages (mouse) is given as over 20 µM. Moreover, the “differences in MIC between the two assays (broth and intracellular)” value (“differences” below) in series [2] was “No major differences”.

Take `O=C(NCCOCc1ccccc1F)c1cc([N+](=O)[O-])cc([N+](=O)[O-])c1` [Compound 5]: the MIC in [1] (read-out: MIC Extracellular) was found to be 0.08 µM; in series [2] (read-out: MIC Intracellular), 0.2 µM.

For `O=C(NCCOCc1cccc(C(F)(F)F)c1)c1cc([N+](=O)[O-])cc([N+](=O)[O-])c1` [Compound 6], the MIC in series [1] (read-out: MIC Extracellular) and in series [2] (read-out: MIC Intracellular) was 0.2 µM in each case.

In the case of `CO[C@H]1/C=C/O[C@@]2(C)Oc3c(C)c(O)c4c(O)c(c(/C=N/N5CCN(C)CC5)c(O)c4c3C2=O)NC(=O)/C(C)=C\C=C\[C@H](C)[C@H](O)[C@@H](C)[C@@H](O)[C@@H](C)[C@H](OC(C)=O)[C@@H]1C` [Rifampin], the MIC is 0.01 µM in [1] (setting [11]); 0.01 µg/mL in series [1] (setting [12]); 0.31 µg/mL (≈ 0.377 µM) in the series on BCG Wild Type; 0.31 µg/mL (≈ 0.377 µM) in series [3]; 2.9 µM in [2] (setting [13]); 2.4 µg/mL in series [2] (setting [14]). In addition, the “Intracellular macrophage growth Cell toxicity” value with Raw264.7 macrophages (mouse) is listed as 24 µM.

Take `CC(=O)O[C@H]1C[C@@]2(C)[C@@H](C[C@@H](O)[C@H]3[C@@]4(C)CC[C@@H](O)[C@@H](C)[C@@H]4CC[C@@]32C)/C1=C(\CCC=C(C)C)C(=O)O` [Fusidic Acid]: the MIC amounted to 1 µM in series [1] (setting [11]), 0.5 µg/mL in series [1] (setting [12]), 20 µM in series [2] (setting [13]) and 10 µg/mL in series [2] (setting [14]). In addition, the “Intracellular macrophage growth Cell toxicity” value with Raw264.7 macrophages (mouse) is reported as over 20 µM.

For the molecule `NC(=O)c1cnccn1` [Pyrazinamide], the MIC in [1] (setting [11]) is over 150 µM; in series [1] (setting [12]) it was over 20 µg/mL; in series [2] (setting [13]), over 150 µM; in series [2] (setting [14]), over 20 µg/mL. Besides, the “Intracellular macrophage growth Cell toxicity” value with Raw264.7 macrophages (mouse) is reported as over 150 µM.

`CO[C@H]1/C=C/O[C@@]2(C)Oc3c(C)c(O)c4c(c3C2=O)C2=NC3(CCN(CC(C)C)CC3)NC2=C(NC(=O)/C(C)=C\C=C\[C@H](C)[C@H](O)[C@@H](C)[C@@H](O)[C@@H](C)[C@H](OC(C)=O)[C@@H]1C)C4=O` [Rifabutin]: the MIC in series [1] (setting [11]) was 0.01 µM; in series [1] (setting [12]) it was 0.01 µg/mL; in series [2] (setting [13]) it was 0.11 µM; in series [2] (setting [14]), 0.1 µg/mL. The “Intracellular macrophage growth Cell toxicity” value with Raw264.7 macrophages (mouse) was over 20 µM.

As to `COc1ccc(O[C@H]2CCCN(C(=O)c3cc([N+](=O)[O-])cc([N+](=O)[O-])c3)C2)cc1` [Compound 12-(S)], the MIC was determined as 6 µM in series [1] (read-out: MIC Extracellular) and 20 µM in series [2] (read-out: MIC Intracellular).

On to `NNC(=O)c1ccncc1` [Isoniazid], for which the MIC in series [1] (setting [11]) stood at 1.2 µM; in series [1] (setting [12]), 0.16 µg/mL; in series [2] (setting [13]), 1.2 µM; in series [2] (setting [14]), 0.16 µg/mL. Further, the “Intracellular macrophage growth Cell toxicity” value in the series on Raw264.7 macrophages (mouse) is over 150 µM. Further, the “differences” value in [2] is “No major differences”.

For the molecule `CCc1cc(C(N)=S)ccn1` [Ethionamide], the MIC in [1] (setting [11]) worked out at 6 µM; in series [1] (setting [12]), 1 µg/mL; in [2] (setting [13]), 6 µM; in series [2] (setting [14]) it was 1 µg/mL. The “Intracellular macrophage growth Cell toxicity” value in the series on Raw264.7 macrophages (mouse) was found to be 120 µM. In series [2], the “differences” value is “No major differences”.

With `O=C(NCCOCc1cccc(Cl)c1)c1cc([N+](=O)[O-])cc([N+](=O)[O-])c1` [Compound 1], the values for the MIC in series [1] (read-out: MIC Extracellular) and in series [2] (read-out: MIC Intracellular) were 0.2 µM and 1 µM, respectively.

Consider `O=C(NCCOCc1ccccc1)c1cc([N+](=O)[O-])cc([N+](=O)[O-])c1` [Compound 7, N-(2-(benzyloxy)ethyl)-3,5-dinitrobenzamide], for which the “Range of MICs for multiple strains” value is on record as 0.2 µM in the series on M. tuberculosis H37Rv [4]; 2.7 µM in the series on C. jeikeium; 0.2 µM with M. tuberculosis H37Ra [5]; over 250 µM in [6]; 0.4 µM in the series on M. smegmatis mc2 155; over 250 µM in series [7]. The “Range of MICs for multiple strains” value with C. striatum is 27 µM; with BCG Pasteur-Tokyo, 0.2 to 0.7 µM; in [9] it was over 250 µM. The IC50 in “in vitro” amounted to 50 µM. The MIC in series [1] (read-out: MIC Extracellular) turned out to be 0.2 µM; against BCG Wild Type (Mycobacterium tuberculosis variant bovis BCG, BCG), 0.25 µg/mL (≈ 0.724 µM); in series [3] (Mycolicibacterium smegmatis, MC2155) it was 0.25 µg/mL (≈ 0.724 µM); in series [2] (read-out: MIC Intracellular) it was 0.2 µM. Also, the “effect on the synthesis of the arabinan domains of arabinogalactan (AG) and lipoarabinomannan (LAM)” value with M. tuberculosis H37Ra [8] is reported as “clear-cut effect”. The “effects on the biosynthesis of fatty acids, mycolic acids and/or other lipids” value in the series with M. tuberculosis H37Ra [8] is reported as “no effects”. The “bactericidal effect on M. tuberculosis” value in the series with M. tuberculosis H37Rv [10] is listed as “time-dependent”.

As for `COc1ccc(O[C@H]2CCN(C(=O)c3cc([N+](=O)[O-])cc([N+](=O)[O-])c3)C2)cc1` [Compound 10-(S)], the figures for the MIC in series [1] (read-out: MIC Extracellular) and in series [2] (read-out: MIC Intracellular) were 0.08 µM and 20 µM, respectively.

For `O=C(NCCOc1ccccc1F)c1cc([N+](=O)[O-])cc([N+](=O)[O-])c1` [Compound 9], the MIC in [1] (read-out: MIC Extracellular) was found to be 0.2 µM; in [2] (read-out: MIC Intracellular), 0.7 µM.

Consider `C[C@H]1COc2c(N3CCN(C)CC3)c(F)cc3c(=O)c(C(=O)O)cn1c23` [Levofloxacin], for which the MIC in series [1] (setting [11]) was 2.5 µM; in series [1] (setting [12]), 0.9 µg/mL; in [2] (setting [13]) it was over 20 µM; in [2] (setting [14]), over 10 µg/mL. Besides, in the series on Raw264.7 macrophages (mouse), the “Intracellular macrophage growth Cell toxicity” value is listed as over 20 µM.

Regarding `O=[N+]([O-])c1cn2c(n1)OC[C@@H](OCc1ccc(OC(F)(F)F)cc1)C2` [PA-824], the MIC in series [1] (setting [11]) came to 0.22 µM; in [1] (setting [12]), 0.08 µg/mL; in [2] (setting [13]) it was 0.22 µM; in [2] (setting [14]), 0.08 µg/mL. Besides, the “Intracellular macrophage growth Cell toxicity” value with Raw264.7 macrophages (mouse) is over 20 µM. In addition, the “differences” value in [2] is “No major differences”.
